The source of these data is US10010494B2, “Methods for the treatment of hyperhidrosis” (priority 2005, dated 2018).

This test relates to patient suffering from hyperhidrosis. The test can be described thus: Oral sulpiride given to a patient suffering from hyperhidrosis. It is filed as in vivo, human. The following applies: 200 mg daily. How it is done:
A dose of 200 mg Sulpiride was administered to a patient suffering from hyperhidrosis.

Turning to `CCN1CCCC1CNC(=O)c1cc(S(N)(=O)=O)ccc1OC` (stereo not drawn) [Sulpiride, N-[(1-ethylpyrrolidin-2-yl)methyl]-2-methoxy-5-sulfamoyl-benzamide], the “duration of reduction in sweating” value is “lasted for as long as the patient took a daily pill”, the effect on sweating entry is on record as “reduction in sweating” and the “onset of reduction in sweating after beginning taking the drug” value was found to be 72 h.
